Test results published in patent US20230365542A1, “Selective Agonists of 5-HT2A Receptor and Methods of Use” (Yale University, priority 2020, published 2023).
Like-named read-outs stand apart in the source and are kept apart here.

Legend:
5-HT2BR [1] = biological target: T1, 5-HT2BR (Homo sapiens, UniProt P41595); assay: Calcium flux assay (FLIPR, Fluo-4), 5-HT2BR stable cell line; type: cell-based; settings: for 5-HT2BR Rmax ± S.E.M: value in parentheses
T1 construct: expressed in transfected cells; host or cells: Flp-In 293 T-Rex (tetracycline inducible)
Description: Stable cell lines for 5-HT2AR, 5-HT2BR and 5-HT2CR generated using the Flp-In 293 T-Rex Tetracycline inducible system (Invitrogen). Tetracycline-induced cells were seeded in 384-well poly-L-lysine plates at a density of 10,000 cells/well in DMEM containing 1% dialyzed FBS at least 16-24 hr before the calcium flux assay. On the day of the assay, the cells were incubated (20 ul/well) for 1 hr at 37° C. with Fluo-4 Direct dye (Invitrogen) reconstituted in FLIPR buffer (1×HBSS, 2.5 mM probenecid, and 20 mM HEPES, pH 7.4). After dye loading, cells were placed in a FLIPR^TETRA fluorescence imaging plate reader ([…]). Drug dilutions were prepared at 3× final concentration in drug buffer (1×HBSS, 20 mM HEPES, 0.1% BSA, 0.01% ascorbic acid, pH 7.4) and aliquoted into 384-well plates and placed in the FLIPR^TETRA for drug stimulation. The fluidics module and plate reader of the FLIPR^TETRA were programmed to read baseline fluorescence for 10s (1 read/s), then 10 ul of drug/well was added and read for 5 min (1 read/s). Fluorescence in each well was normalized to the average of the first 10 reads (i.e., baseline fluorescence). Then, the maximum-fold increase, which occurred within the first 60 s after drug addition, was determined and fold over baseline was plotted as a function of drug concentration. Data were normalized to % 5-HT stimulation and analyzed using “log(agonist) vs. response” in GraphPad Prism 9.0.

5-HT2BR [2] = biological target: T1, 5-HT2BR; assay: 5-HT2BR binding affinity (Ki), Table 8
5-HT2CR [3] = biological target: T2, 5-HT2CR (Homo sapiens, UniProt P28335); assay: 5-HT2CR binding affinity (Ki), Table 8
T2 sequence (P28335 33-458): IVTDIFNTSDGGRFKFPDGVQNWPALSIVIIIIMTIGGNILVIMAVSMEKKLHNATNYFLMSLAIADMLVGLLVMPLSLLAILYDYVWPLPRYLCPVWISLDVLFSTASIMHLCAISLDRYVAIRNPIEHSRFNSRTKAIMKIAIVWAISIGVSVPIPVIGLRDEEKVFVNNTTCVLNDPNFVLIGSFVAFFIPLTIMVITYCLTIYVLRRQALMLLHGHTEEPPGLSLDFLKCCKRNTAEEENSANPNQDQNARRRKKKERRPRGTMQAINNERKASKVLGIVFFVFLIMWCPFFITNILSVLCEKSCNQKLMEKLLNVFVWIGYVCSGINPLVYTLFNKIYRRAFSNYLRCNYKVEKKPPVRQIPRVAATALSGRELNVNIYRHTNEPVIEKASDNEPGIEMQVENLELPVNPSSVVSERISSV

5-HT2AR [4] = biological target: T3, 5-HT2AR (Homo sapiens, UniProt P28223); assay: Calcium flux assay (FLIPR, Fluo-4), 5-HT2AR stable cell line; type: cell-based; settings: for 5-HT2AR Rmax ± S.E.M: value in parentheses
T3 construct: expressed in transfected cells; host or cells: Flp-In 293 T-Rex (tetracycline inducible)
Description: (§1) Stable cell lines for 5-HT2AR, 5-HT2BR and 5-HT2CR generated using the Flp-In 293 T-Rex Tetracycline inducible system (Invitrogen). Tetracycline-induced cells were seeded in 384-well poly-L-lysine plates at a density of 10,000 cells/well in DMEM containing 1% dialyzed FBS at least 16-24 hr before the calcium flux assay. On the day of the assay, the cells were incubated (20 ul/well) for 1 hr at 37° C. with Fluo-4 Direct dye (Invitrogen) reconstituted in FLIPR buffer (1×HBSS, 2.5 mM probenecid, and 20 mM HEPES, pH 7.4). After dye loading, cells were placed in a FLIPR^TETRA fluorescence imaging plate reader (Molecular Dynamics). Drug dilutions were prepared at 3× final concentration in drug buffer (1×HBSS, 20 mM HEPES, 0.1% BSA, 0.01% ascorbic acid, pH 7.4) and aliquoted into 384-well plates and placed in the FLIPR^TETRA for drug stimulation. The fluidics module and plate reader of the FLIPR^TETRA were programmed to read baseline fluorescence for 10s (1 read/s), then 10 ul of drug/well was added and read for 5 min (1 read/s). Fluorescence in each well was normalized to the average of the first 10 reads (i.e., baseline fluorescence). Then, the maximum-fold increase, which occurred within the first 60 s after drug addition, was determined and fold over baseline was plotted as a function of drug concentration. Data were normalized to % 5-HT stimulation and analyzed using “log(agonist) vs. response” in GraphPad Prism 9.0.

5-HT2AR [5] = biological target: T3, 5-HT2AR; assay: 5-HT2AR binding affinity (Ki), Table 8
5-HT2CR [6] = biological target: T2, 5-HT2CR; assay: Calcium flux assay (FLIPR, Fluo-4), 5-HT2CR stable cell line; type: cell-based; settings: for EC50: read-out: 5-HT2CR EC50; for 5-HT2CR Rmax ± S.E.M: value in parentheses
Description: as §1

[7] = bracketed value below EC50, read-out: 5-HT2BR pEC50 ± S.E.M (converted)
[8] = bracketed value below Ki, read-out: 5-HT2BR pKi ± S.E.M (converted)
[9] = bracketed value below EC50, read-out: 5-HT2AR pEC50 ± S.E.M (converted)
[10] = bracketed value below Ki, read-out: 5-HT2CR pKi ± S.E.M (converted)

T3 sequence (P28223 whole entry): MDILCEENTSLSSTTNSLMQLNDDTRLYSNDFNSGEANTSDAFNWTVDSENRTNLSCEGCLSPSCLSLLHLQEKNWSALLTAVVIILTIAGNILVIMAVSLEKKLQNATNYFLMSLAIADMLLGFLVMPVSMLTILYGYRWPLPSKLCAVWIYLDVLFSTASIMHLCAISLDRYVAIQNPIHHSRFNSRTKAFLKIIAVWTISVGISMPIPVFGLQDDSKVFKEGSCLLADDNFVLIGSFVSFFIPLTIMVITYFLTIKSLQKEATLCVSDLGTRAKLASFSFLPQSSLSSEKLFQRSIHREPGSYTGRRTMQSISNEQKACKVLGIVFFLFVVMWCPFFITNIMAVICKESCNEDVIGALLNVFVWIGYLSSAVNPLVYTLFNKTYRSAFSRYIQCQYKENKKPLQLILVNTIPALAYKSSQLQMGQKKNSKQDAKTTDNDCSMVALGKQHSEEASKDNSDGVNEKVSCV
T1 sequence (P41595 whole entry): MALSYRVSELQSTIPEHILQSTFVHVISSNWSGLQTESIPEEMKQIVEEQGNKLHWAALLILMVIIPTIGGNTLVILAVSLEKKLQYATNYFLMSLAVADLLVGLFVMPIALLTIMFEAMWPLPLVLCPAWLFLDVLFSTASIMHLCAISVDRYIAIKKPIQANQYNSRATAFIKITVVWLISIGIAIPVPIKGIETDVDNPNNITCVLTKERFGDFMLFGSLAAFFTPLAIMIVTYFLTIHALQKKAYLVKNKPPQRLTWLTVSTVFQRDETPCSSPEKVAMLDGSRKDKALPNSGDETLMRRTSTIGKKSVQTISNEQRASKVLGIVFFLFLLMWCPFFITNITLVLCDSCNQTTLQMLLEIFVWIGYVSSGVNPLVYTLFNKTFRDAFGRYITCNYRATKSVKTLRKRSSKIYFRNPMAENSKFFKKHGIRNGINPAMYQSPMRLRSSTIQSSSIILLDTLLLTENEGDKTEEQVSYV

SMILES	EC50 (5-HT2BR [1]; read-out: 5-HT2BR EC50) [µM]	5-HT2BR Rmax ± S.E.M (5-HT2BR [1])	Ki (5-HT2BR [2]; read-out: 5-HT2BR Ki) [µM]	Ki (5-HT2CR [3]; read-out: 5-HT2CR Ki) [µM]	EC50 (5-HT2AR [4]; read-out: 5-HT2AR EC50) [µM]	5-HT2AR Rmax ± S.E.M (5-HT2AR [4])	Ki (5-HT2AR [5]; read-out: 5-HT2AR Ki) [µM]	EC50 (5-HT2CR [6]) [µM]	5-HT2BR EC50 (5-HT2BR [1])	5-HT2CR EC50 (5-HT2CR [6])	EC50 (5-HT2BR [1]; [7]) [µM]	Ki (5-HT2BR [2]; [8]) [µM]	EC50 (5-HT2AR [4]; [9]) [µM]	Ki (5-HT2CR [3]; [10]) [µM]	5-HT2CR Rmax ± S.E.M (5-HT2CR [6])	5-HT2AR EC50 (5-HT2AR [4])	Ki (5-HT2AR [5]; bracketed value below Ki, read-out: 5-HT2AR pKi ± S.E.M (converted)) [µM]
c1cnc2[nH]cc(C3CCCNC3)c2c1 (single isomer, unassigned) [compound 50, 3-(piperidin-3-yl)-1H-pyrrolo[2,3-b]pyridine]	0.68	(47.0%	0.62	2.73	1.17	(65.1%	5.25	> 10									
c1cnc2[nH]cc(C3CCCNC3)c2c1 (single isomer, unassigned) [compound 51, 3-(piperidin-3-yl)-1H-pyrrolo[2,3-b]pyridine]			0.5	0.48	4.21	(18.2%	2.73		antagonist	antagonist							
CCCCCN1CC(c2cncc(Cl)c2)=C[C@H](C)C1 [Compound 10, 5′-chloro-5-methyl-1-pentyl-1,2,5,6-tetrahydro-3,3′-bipyridine]		(88.9%		1.66		(68.6%	7.01	> 10			0.0245	0.00501	0.331				
CCCN1CC(c2cncc(Cl)c2)=C[C@H](C)C1 [Compound 16, 5′-Chloro-5-methyl-1-propyl-1,2,5,6-tetrahydro-3,3′-bipyridine]		(74.9%		6.52	1.06	(48.7%	7.32	6.76			0.02	0.0132	1.05	6.31	(34.4%		
CCCCN1CC(c2c[nH]c3ncccc23)=C[C@H](C)C1 [Compound 22, 3-(1-butyl-5-methyl-1,2,5,6-tetrahydropyridin-3-yl)-1H-pyrrolo[2,3-b]pyridine]			1.97	7.03	2.26	(23.8%	5.27		antagonist	antagonist				7.41			
C[C@@H]1C=C(c2c[nH]c3ncccc23)CN(CC2(C)COC2)C1 [compound 25, (R)-3-(5-methyl-1-((3-methyloxetan-3-yl)methyl)-1,2,5,6-tetrahydropyridin-3-yl)-1H-pyrrolo[2,3-b]pyridine]	6.38	(44.6%	3.29	> 10	4	(29.5%	> 10										
C[C@H]1C=C(c2c[nH]c3ncccc23)CN(CC2(C)COC2)C1 [compound 26, (S)-3-(5-methyl-1-((3-methyloxetan-3-yl)methyl)-1,2,5,6-tetrahydropyridin-3-yl)-1H-pyrrolo[2,3-b]pyridine]	9.23	(71.0%	5.83	> 10	> 10		> 10				9.12	5.75					
C[C@@H]1C=C(c2c[nH]c3ncccc23)CN(C2COC2)C1 [compound 27, (R)-3-(5-methyl-1-(oxetan-3-yl)-1,2,5,6-tetrahydropyridin-3-yl)-1H-pyrrolo[2,3-b]pyridine]			> 10	> 10	> 10		> 10		antagonist								
C[C@H]1C=C(c2c[nH]c3ncccc23)CN(C2COC2)C1 [compound 28, (S)-3-(5-methyl-1-(oxetan-3-yl)-1,2,5,6-tetrahydropyridin-3-yl)-1H-pyrrolo[2,3-b]pyridine]	5.24	(48.1%	9.89	> 10	> 10		> 10					9.77					
C[C@@H]1C=C(c2c[nH]c3ncccc23)CN(C2CC2)C1 [compound 29, (R)-3-(1-cyclopropyl-5-methyl-1,2,5,6-tetrahydropyridin-3-yl)-1H-pyrrolo[2,3-b]pyridine]	5.15	(74.7%	1.66	> 10	1.36	(63.0%	6.14										
C[C@H]1C=C(c2c[nH]c3ncccc23)CN(C2CC2)C1 [compound 30, (S)-3-(1-cyclopropyl-5-methyl-1,2,5,6-tetrahydropyridin-3-yl)-1H-pyrrolo[2,3-b]pyridine]	4.36	(58.3%	2.54	> 10	3.54	(29.1%	> 10										
C[C@@H]1C=C(c2c[nH]c3ncccc23)CN(CCCN(C)C)C1 [compound 31, (R)-N,N-dimethyl-3-(3-methyl-5-(1H-pyrrolo[2,3-b]pyridin-3-yl)-3,6-dihydropyrridin-1(2H)-yl)propan-1-amine]			> 10	> 10			> 10		antagonist							antagonist	
C[C@H]1C=C(c2c[nH]c3ncccc23)CN(CCCN(C)C)C1 [compound 32, (S)-N,N-dimethyl-3-(3-methyl-5-(1H-pyrrolo[2,3-b]pyridin-3-yl)-3,6-dihydropyridin-1(2H)-yl)propan-1-amine]			9.72	> 10			> 10		antagonist							antagonist	
C[C@H]1C=C(c2c[nH]c3ncccc23)CN(C)C1 [compound 34, (S)-3-(1,5-dimethyl-1,2,5,6-tetrahydropyridin-3-yl)-1H-pyrrolo[2,3-b]pyridine]			0.64	0.75	1.14	(7.1%	1.52		antagonist	antagonist				0.741			
C[C@@H]1C=C(c2c[nH]c3ncccc23)CNC1 [compound 38, (R)-3-(5-methyl-1,2,5,6-tetrahydropyridin-3-yl)-1H-pyrrolo[2,3-b]pyridine]		(82.9%				(90.1%	0.68					0.295			(75.0%		
C[C@@H]1C=C(c2c[nH]c3ncccc23)CN(CCCc2cnn(C)c2)C1 [compound 43, (R)-3-(5-methyl-1-(3-(1-methyl-1H-pyrazol-4-yl)propyl)-1,2,5,6-tetrahydropyridin-3-yl)-1H-pyrrolo[2,3-b]pyridine]	0.79	(39.5%	0.7	> 10			0.67					0.692				antagonist	0.661
C[C@H]1C=C(c2c[nH]c3ncccc23)CN(CCCc2cnn(C)c2)C1 [compound 44, (S)-3-(5-methyl-1-(3-(1-methyl-1H-pyrazol-4-yl)propyl)-1,2,5,6-tetrahydropyridin-3-yl)-1H-pyrrolo[2,3-b]pyridine]	0.36	(56.2%	0.96	> 10		(40.2%	2.37				0.355		0.269				
C[C@H]1C=C(c2c[nH]c3ncccc23)CN(Cc2cnco2)C1 [compound 48, (S)-5-((3-methyl-5-(1H-pyrrolo[2,3-b]pyridin-3-yl)-3,6-dihydropyridin-1(2H)-yl)methyl)oxazole]	8.86	(48.8%	8.01	> 10			> 10									antagonist	
